From patent publication US11135188B2, “Method and composition to improve absorption of therapeutic agents” (Bayer HealthCare LLC, priority 2009, dated 2021)

Assay: Compatibility: degradation products of aspirin/carbonate blends by HPLC
Type: physicochemical
Method: The degradation products of various combinations of aspirin and various carbonates were determined for different combinations of aspirin and different grades and sources of carbonates to evaluate the compatibility and stability. Milling for about fifteen minutes appeared to slightly induce the production of free salicylic acid (FSA), but not to a significant extent. […] The results are shown in Table 3 (all blend percentages are weight percentages obtained using High Performance Liquid Chromatography (HPLC))

- Acetyl Salicylic Salicylic Acid ASSA: 0.00%
- FSA (free salicylic acid): 0.00%
Structure (SMILES): CC(=O)Oc1ccccc1C(=O)O [100% Aspirin-Milled 15 min, Aspirin]
